Target: Cbl-b protein and UbcH5B-Ub (Homo sapiens (Human), UniProt Q13191)
Assay: Cbl-b activity assay (HTRF, interaction between Cbl-b protein and UbcH5B-Ub)
Format: biochemical
Settings: inhibition of interaction between Biotin-Cbl-b protein and Eu-Ubquitin-UbcH5B, HTRF signal 665 nm/615 nm
Experimental: Experiment purpose: Testing of inhibitory activity of compounds on the interaction between Cbl-b protein and UbcH5B-Ub
Experimental method: Eu-Ubquitin-UbcH5B was prepared by incubating Eu-Ubquitin (Cisbio) with UbcH5B (ENZO), E1 (ENZO) at 37° C. for 4 hours. Eu-Ubquitin-UbcH5B was aliquoted and stored at −80° C. Cbl-b activity assay was performed in 384-well plates (Perkin Elmer). 100 nL of 3-fold serial dilutions of compounds (final concentration 10 μM-0.5 nM, starting concentration 10 μM, 3-fold dilution, 10 points, 10th point being 0.5 nM) and 5 μL of 50 nM Biotin-Cbl-b protein (Sigma) were incubated for 1 hour at room temperature, and the reaction buffer was 50 mM HEPES pH 7.0 (Gibco), 100 mM NaCl (Sigma), 0.01% Triton X-100 (Sigma), 0.01% BSA (Sigma) and 1 mM DTT (Invitrogen). 5 μL of Src mixed solution (40 nM Src (R&D), 2 mM ATP (Sigma), 10 mM MgCl2 (Sigma)) was added to the reaction plate and incubated at room temperature for 3 hours. 10 μL of detection solution (12.5 nM Strepdividin-XL665 (Cisbio), 500 nM Eu-Ubquitin-UbcH5B, […] (Invitrogen), 0.004% BSA (Sigma)) was added to the reaction plate, incubated overnight at room temperature, and the HTRF signal (665 nm/615 nm) was read on Envision (Perkin Elmer). IC50 was calculated using IDBS XLfit.

Cbl-b protein and UbcH5B-Ub, sequence (Q13191 whole entry, species assumed): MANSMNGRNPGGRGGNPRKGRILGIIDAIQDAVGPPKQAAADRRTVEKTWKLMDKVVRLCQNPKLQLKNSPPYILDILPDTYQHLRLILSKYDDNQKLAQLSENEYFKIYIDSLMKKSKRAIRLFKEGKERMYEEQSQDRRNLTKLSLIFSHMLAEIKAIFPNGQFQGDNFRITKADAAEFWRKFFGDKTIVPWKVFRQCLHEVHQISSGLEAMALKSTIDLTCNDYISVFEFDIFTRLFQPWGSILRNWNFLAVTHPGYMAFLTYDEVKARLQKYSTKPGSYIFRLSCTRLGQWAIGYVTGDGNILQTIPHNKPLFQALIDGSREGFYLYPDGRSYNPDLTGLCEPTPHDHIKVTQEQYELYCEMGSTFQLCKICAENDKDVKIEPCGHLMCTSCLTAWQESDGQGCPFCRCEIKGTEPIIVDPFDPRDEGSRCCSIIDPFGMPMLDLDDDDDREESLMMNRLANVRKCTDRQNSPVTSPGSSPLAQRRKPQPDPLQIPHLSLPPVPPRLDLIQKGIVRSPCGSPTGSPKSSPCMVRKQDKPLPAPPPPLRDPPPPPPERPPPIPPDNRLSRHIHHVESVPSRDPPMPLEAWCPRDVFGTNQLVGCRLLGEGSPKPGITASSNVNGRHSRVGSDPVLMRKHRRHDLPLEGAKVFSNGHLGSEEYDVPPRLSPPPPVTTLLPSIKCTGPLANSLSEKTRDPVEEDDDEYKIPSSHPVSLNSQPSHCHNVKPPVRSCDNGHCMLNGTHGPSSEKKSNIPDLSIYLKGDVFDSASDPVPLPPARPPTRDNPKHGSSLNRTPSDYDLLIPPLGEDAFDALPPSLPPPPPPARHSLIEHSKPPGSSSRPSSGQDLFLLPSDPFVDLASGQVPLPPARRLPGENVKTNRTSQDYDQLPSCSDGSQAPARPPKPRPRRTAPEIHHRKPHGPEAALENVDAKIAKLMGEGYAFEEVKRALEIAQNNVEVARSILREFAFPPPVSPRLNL

| SMILES | IC50 |
| --- | --- |
| CC1CC(c2cccc(-c3cnc4ccc(CN5CCC[C@H](C)C5)cn4c3=O)c2)(c2nncn2C)C1 (stereo partly drawn) [Compound 1, 3-[3-[3-methyl-1-(4-methyl-4H-1,2,4-triazol-3-yl)cyclobutyl]phenyl]-7-[[(3S)-3-methyl-1-piperidyl]methyl]pyrido[1,2-a]pyrimidin-4-one] | 76.6 nM |
| CC1CC(c2cccc(-c3cnc4c(F)cc(CN5CCC[C@H](C)C5)cn4c3=O)c2)(c2nncn2C)C1 (stereo partly shown) [Compound 9] | 130 nM |
| CC1CC(c2cccc(-c3cnc4c(Cl)cc(CN5CCC[C@H](C)C5)cn4c3=O)c2)(c2nncn2C)C1 (stereo partly shown) [Compound 10] | 42.9 nM |
| CCc1cc(CN2CCC[C@H](C)C2)cn2c(=O)c(-c3cccc(C4(c5nncn5C)CC(C)C4)c3)cnc12 (stereo partly shown) [Compound 12] | 63.9 nM |
| CC1CC(c2cccc(-c3cnc4sc(CN5CCC[C@H](C)C5)cn4c3=O)c2)(c2nncn2C)C1 (stereo partly drawn) [Compound 59, (S)-6-(3-(3-methyl-1-(4-methyl-4H-1,2,4-triazol-3-yl)cyclobutyl)phenyl)-2-((3-methylpiperidin-1-yl)methyl)-5H-thiazolo[3,2-a]pyrimidin-5-one] | 43.1 nM |
| C[C@H]1CCCN(Cc2cc(C(F)(F)F)c3ncc(-c4cccc(C5(Cc6nncn6C)COC5)c4)c(=O)n3c2)C1 [Compound 5] | 450 nM |
| CC1CC(c2cccc(-c3cnc4c(C(F)(F)F)cc(CN5CCO[C@H](C)C5)cn4c3=O)c2)(c2nncn2C)C1 (stereo partly shown) [Compound 4] | 268 nM |
| CC1CC(c2cccc(-c3cnc4c(C5CC5)cc(CN5CCC[C@H](C)C5)cn4c3=O)c2)(c2nncn2C)C1 (stereo partly shown) [Compound 13] | 31.9 nM |
| CC1CC(c2cccc(-c3cnc4c(C(F)(F)F)cc(CN5CC6CCC5C6)cn4c3=O)c2)(c2nncn2C)C1 (stereo not shown) [Compound 17] | 167 nM |
| CC1CC(c2cccc(-c3cnc4c(Br)cc(CN5CCC[C@H](C)C5)cn4c3=O)c2)(c2nncn2C)C1 (stereo partly shown) [Compound 14] | 29.3 nM |
| COc1cc(CN2CCC[C@H](C)C2)cn2c(=O)c(-c3cccc(C4(c5nncn5C)CC(C)C4)c3)cnc12 (stereo partly shown) [Compound 3] | 296 nM |
| C[C@H]1CCCN(Cc2cc(C(F)(F)F)c3ncc(-c4cccc(C(c5nncn5C)C5CC5)c4)c(=O)n3c2)C1 (stereo partly drawn) [Compound 63, 3-(3-(cyclopropyl(4-methyl-4H-1,2,4-triazol-3-yl)methyl)phenyl)-7-(((S)-3-methylpiperidin-1-yl)methyl)-9-trifluoromethyl-4H-pyrido[1,2-a]pyrimidin-4-one] | 41.6 nM |
| Cc1cc(CN2CCC[C@H](C)C2)cn2c(=O)c(-c3cccc(C4(c5nncn5C)CC(C)C4)c3)cnc12 (stereo partly shown) [Compound 11] | 31.2 nM |

More lines, now with the values ahead:

| IC50 | SMILES |
| --- | --- |
| 7.4 nM | CC1CC(c2cncc(-c3coc4c(C5CC5)cc(CN5CCC[C@H](C)C5)cc4c3=O)c2)(c2nncn2C)C1 (stereo partly drawn) [Compound 75, (S)-8-cyclopropyl-3-(5-(3-methyl-1-(4-methyl-4H-1,2,4-triazol-3-yl)cyclobutyl)pyridin-3-yl)-6-((3-methylpiperidin-1-yl)methyl)-4H-chromen-4-one] |
| 88.9 nM | Cc1cc(CN2CCC[C@H](C)C2)cc2c(=O)c(-c3cc(C(F)(F)F)cc(C4(c5nncn5C)CC(C)C4)c3)coc12 (stereo partly drawn) [Compound 66, (S)-8-methyl-3-(3-(3-methyl-1-(4-methyl-4H-1,2,4-triazol-3-yl)cyclobutyl)-5-trifluoromethylphenyl)-6-((3-methylpiperidin-1-yl)methyl)-4H-chromen-4-one] |
| 203 nM | Cc1cc(CN2CCC[C@H](C)C2)cc2c(=O)c(-c3cccc(C4(c5nncn5C)CCO4)c3)coc12 (stereo partly drawn) [Compound 71, 8-methyl-3-(3-(2-(4-methyl-4H-1,2,4-triazol-3-yl)oxetan-2-yl)phenyl)-6-(((S)-3-methylpiperidin-1-yl)methyl)-4H-chromen-4-one] |
| 32.7 nM | Cc1cc(CN2CCN(C)C[C@@H]2C(C)C)cc2c(=O)c(-c3cccc(C4(c5nncn5C)CC(C)C4)c3)coc12 (stereo partly shown) [Compound 88] |
| 7.8 nM | Cc1cc(CN2CCC[C@H](C)C2)cc2c(=O)c(-c3cccc([C@@](F)(c4nncn4C)C4CC4)c3)coc12 [Compound 120-P2, 3-(3-((R)-cyclopropylfluoro(4-methyl-4H-1,2,4-triazol-3-yl)methyl)phenyl)-8-methyl-6-(((S)-3-methylpiperidin-1-yl)methyl)-4H-chromen-4-one] |
| 38.4 nM | Cc1cc(CN2CCC[C@H](C)C2)cc2c(=O)c(-c3cccc(C(c4nncn4C)C4CC4)c3)coc12 (stereo partly drawn) [Compound 64, 3-(3-(cyclopropyl(4-methyl-4H-1,2,4-triazol-3-yl)methyl)phenyl)-8-methyl-6-(((S)-3-methylpiperidin-1-yl)methyl)-4H-chromen-4-one] |
| 17.8 nM | Cc1cc(CN2CCC(F)(F)[C@H](C)C2)cc2c(=O)c(-c3cccc(C(F)(c4nncn4C)C4CC4)c3)coc12 (stereo partly drawn) [Compound 129, 3-(3-(cyclopropylfluoro(4-methyl-4H-1,2,4-triazol-3-yl)methyl)phenyl)-6-(((R)-4,4-difluoro-3-methylpiperidin-1-yl)methyl)-8-methyl-4H-chromen-4-one] |
| 41.6 nM | CC1CC(c2cccc(-c3cnc4c(C(F)(F)F)cc(CN5CCN(C)C[C@@H]5C(C)C)cn4c3=O)c2)(c2nncn2C)C1 (stereo partly shown) [Compound 89] |
| 96.4 nM | Cc1cc(CN2CCC[C@H](C)C2)cc2c(=O)c(-c3cccc(C(C)(C)c4nncn4C)c3)coc12 [Compound 67, (S)-8-methyl-3-(3-(2-(4-methyl-4H-1,2,4-triazol-3-yl)propan-2-yl)phenyl)-6-((3-methylpiperidin-1-yl)methyl)-4H-chromen-4-one] |
| 19.1 nM | CC1CC(c2cccc(-c3coc4c(C5CC5)cc(CN5CCC[C@H](C)C5)cc4c3=O)c2)(c2nncn2C)C1 (stereo partly drawn) [Compound 74, (S)-8-cyclopropyl-3-(3-(3-methyl-1-(4-methyl-4H-1,2,4-triazol-3-yl)cyclobutyl)phenyl)-6-((3-methylpiperidin-1-yl)methyl)-4H-chromen-4-one] |
| 212 nM | Cc1cc(CN2CCC[C@H](C)C2)cc2c(=O)c(-c3cccc([C@](F)(c4nncn4C)C4CC4)c3)coc12 [Compound 120-P1] |
| 64.9 nM | Cc1cc(CN2CCC[C@H](C)C2)cc2c(=O)c(-c3cccc(C4(c5nncn5C)CC(F)(F)C4)c3)coc12 [Compound 73, (S)-3-(3-(3,3-difluoro-1-(4-methyl-4H-1,2,4-triazol-3-yl)cyclobutyl)phenyl)-8-methyl-6-((3-methylpiperidin-1-yl)methyl)-4H-chromen-4-one] |
